{"source": "patent US20080103212A1", "about": "“Treatment of fruit in storage facility with solid derived diphenylamine anti scald agent” (priority 2006, published 2008)", "key": {"[1]": {"test_system": "Granny Smith and Red Delicious apples", "assay": "Inspection for phytotoxicity on the fruit the morning after DPA aerosol application (Example 1)", "type": "in vivo", "conditions": "15 grams per ton DPA aerosol", "from_the_text": "DPA was applied to Granny Smith and Red Delicious apples at a research facility. Solid, technical grade (99.5%) DPA was melted and applied to the apples in a storage facility as an aerosol using a commercial thermal fogger equipment, provided by Custom Chemical of Warden Wash., as described above. The apples were loaded into 20 bins, of 900 pounds each, of each variety and stacked in a three by three arrangement. The bins were stacked: five high in all of the back rows, in a 5-4-5 high arrangement in the center row and in a 4-3-4 arrangement in the front row. DPA was applied at a rate of 15 grams per ton. This represents a 50% excess to account for any loss in void spaces. The thermal fogging equipment was placed in the hallway of the storage facility with two 10 foot lengths of flex pipe attached to a porthole in the door of the sealed storage room. Fumigating started and reached optimum saturation in 15 minutes. The porthole was then sealed and the room was left alone for 16 hours. Application of the aerosol DPA began with the storage facility fans off. The fans were turned on after 10 minutes of aerosol DPA application and run at ambient temperatures for 12-16 hours. The morning after application the room was unsealed the apples, bins, storage walls and fan blades were checked for anomalies such as DAP sublimation as crystals and possible phytotoxicity on the fruit."}, "[2]": {"test_system": "Granny Smith and Red Delicious apples", "assay": "Scald and decay observation of DPA-fogged apples in cold air storage (Example 1)", "type": "in vivo", "from_the_text": "DPA was applied to Granny Smith and Red Delicious apples at a research facility. Solid, technical grade (99.5%) DPA was melted and applied to the apples in a storage facility as an aerosol using a commercial thermal fogger equipment, provided by Custom Chemical of Warden Wash., as described above. The apples were loaded into 20 bins, of 900 pounds each, of each variety and stacked in a three by three arrangement. The bins were stacked: five high in all of the back rows, in a 5-4-5 high arrangement in the center row and in a 4-3-4 arrangement in the front row. DPA was applied at a rate of 15 grams per ton. This represents a 50% excess to account for any loss in void spaces. The thermal fogging equipment was placed in the hallway of the storage facility with two 10 foot lengths of flex pipe attached to a porthole in the door of the sealed storage room. Fumigating started and reached optimum saturation in 15 minutes. The porthole was then sealed and the room was left alone for 16 hours. Application of the aerosol DPA began with the storage facility fans off. The fans were turned on after 10 minutes of aerosol DPA application and run at ambient temperatures for 12-16 hours. The morning after application the room was unsealed the apples, bins, storage walls and fan blades were checked for anomalies such as DAP sublimation as crystals and possible phytotoxicity on the fruit. […] After the initial inspection the bins were arranged outside of the building so samples could be taken. Each bin was marked as to its location in the room and samples were marked with those same ID codes. Samples were taken from the top of each bin and also by digging into the center of the bin. Each bin was effectively sampled two times. These samples were tested for DPA residual by gas chromatography. The bins were than transferred to a cold air storage facility and observed for five months. Periodically samples were collected for DPA residue, scald and decay analysis as describe below. After 6 weeks additional samples were taken and tested for DPA residual by gas chromatography. These samples were taken like the first set, eight apples from the top of the bin and then digging into the center for eight apples. After two months in common storage four bins were set out for evaluation, two Granny Smith and two Red Delicious. […] The next samples were taken one month later. […] One month later samples were taken in the same fashion as before, top and middle of the bins. Because a fungicide was not used, penicillium rot was showing in about 8% of the Red Delicious samples. The Granny Smith samples were starting to show some decay, roughly 1⁄2 percent. […] The next to last sample was taken about 6 weeks later. Scald was not a problem. […] The positive impact of the treatment was especially evident in the Granny Smith apples which are more susceptible to scald. The decay incidences were unchanged. As stated in the earlier, there was generally a slightly higher decay rate in Red Delicious compared to prior art drench type applications, which typically use one or a combination of two fungicides. The decay in this test was attributed to the lack of fungicide use in this trial."}}, "data": [{"smiles": "c1ccc(Nc2ccccc2)cc1", "note": "[DPA, diphenylamine]", "values": [{"measurement": "possible phytotoxicity on the fruit", "setting": "[1]", "value": "None was found"}, {"measurement": "Scald", "setting": "[2]; after two months in common storage, two Granny Smith and two Red Delicious bins", "value": "No Scald was apparent in any bin"}, {"measurement": "Scald", "setting": "[2]; final assessment, approximately two weeks after the next to last sample", "value": "no additional scald"}, {"measurement": "Scald", "setting": "[2]; next to last sample, about 6 weeks later, all bins", "value": "no scald found in any bin"}, {"measurement": "Scald", "setting": "[2]; one month after the two-month evaluation, both varieties", "value": "Scald was not showing in either variety"}, {"measurement": "Scald", "setting": "[2]; two months after the two-month evaluation, both varieties", "value": "Scald was not apparent in either variety"}]}]}
